# According to patent US20250120946A1, “USE OF PYRROLE COMPOUND IN TREATMENT OF TUMORS” (NANJING SHIJIANG MEDICINE TECHNOLOGY CO., LTD, priority 2021, published 2025):
# Like-named read-outs stand apart in the source and are kept apart here.
# What was measured:
# [1] = system: GB-1 (human glioblastoma cell); test: Cell viability, Promega CellTiter-Glo kit (intracellular ATP), GB-1; assay type: cell-based; settings: insensitive group, 3-4 days of culture, n=3, read-out: IC50 (50% inhibiting concentration), inhibitory effect on cell line
# Protocol: (§1) In the experiment, the IC50 value of sunitinib or sunitinib malate on various tumor cell lines was determined.
# (§2) After 3-4 days of culture, the relevant IC50 (50% inhibiting concentration) was measured (n=3).
# [2] = system: 786-O (clear cell renal cell adenocarcinoma cell); test: Cell viability, Promega CellTiter-Glo kit (intracellular ATP), 786-O; assay type: cell-based, human; settings: insensitive group, 3-4 days of culture, n=3, read-out: IC50 (50% inhibiting concentration), inhibitory effect on cell line
# Protocol: as §1, §2
# [3] = system: NNMT protein-overexpressing NCI-H82 cell (NCI-H82 (ov-NNMT)); test: Cell viability, Promega CellTiter-Glo kit, NNMT protein-overexpressing NCI-H82 cell; assay type: cell-based, human; settings: n=3
# Source text: (§3) The NNMT protein-overexpressing NCI-H82 cell (NCI-H82 (ov-NNMT)) was obtained by inserting the NNMT gene into NCI-H82 cell using a viral vector. The control NCI-H82 cell (NCI-H82 (Con)) was obtained by transfecting NCI-H82 cell with empty virus vector without carrying NNMT gene.
# [4] = system: G-401 (human renal carcinoma Wilms cell); test: Cell viability, Promega CellTiter-Glo kit (intracellular ATP), G-401; assay type: cell-based; settings: sensitive group, 3-4 days of culture, n=3, read-out: IC50 (50% inhibiting concentration), inhibitory effect on cell line
# Protocol: as §1, §2
# [5] = system: WSU-DLCL2 (human diffuse large B-cell lymphoma); test: Cell viability, Promega CellTiter-Glo kit (intracellular ATP), WSU-DLCL2; assay type: cell-based; settings: sensitive group, 3-4 days of culture, n=3, read-out: IC50 (50% inhibiting concentration), inhibitory effect on cell line
# Protocol: as §1, §2
# [6] = system: MDA-MB-453 (breast cancer cell); test: Cell viability, Promega CellTiter-Glo kit (intracellular ATP), MDA-MB-453; settings: sensitive group, 3-4 days of culture, n=3
# [7] = system: CFPAC-1 (human pancreatic cancer cell); test: Cell viability, Promega CellTiter-Glo kit (intracellular ATP), CFPAC-1; assay type: cell-based; settings: insensitive group, 3-4 days of culture, n=3, read-out: IC50 (50% inhibiting concentration), inhibitory effect on cell line
# Protocol: as §1, §2
# [8] = system: control NCI-H82 cell (NCI-H82 (Con)); test: Cell viability, Promega CellTiter-Glo kit, control NCI-H82 cell; assay type: cell-based, human; settings: n=3
# Source text: as §3
# [9] = system: SF126 (human glioblastoma multiforme cell); test: Cell viability, Promega CellTiter-Glo kit (intracellular ATP), SF126; assay type: cell-based; settings: insensitive group, 3-4 days of culture, n=3, read-out: IC50 (50% inhibiting concentration), inhibitory effect on cell line
# Protocol: as §1, §2
# [10] = system: SW48 (human colon adenocarcinoma cell); test: Cell viability, Promega CellTiter-Glo kit (intracellular ATP), SW48; assay type: cell-based; settings: sensitive group, 3-4 days of culture, n=3, read-out: IC50 (50% inhibiting concentration), inhibitory effect on cell line
# Protocol: as §1, §2
# [11] = system: NCI-H82 (human small cell lung cancer cell); test: Cell viability, Promega CellTiter-Glo kit (intracellular ATP), NCI-H82; assay type: cell-based; settings: sensitive group, 3-4 days of culture, n=3, read-out: IC50 (50% inhibiting concentration), inhibitory effect on cell line
# Protocol: as §1
smiles,measurement,setting,value
"CCN(CC)CCNC(=O)c1c(C)[nH]c(/C=C2\C(=O)Nc3ccc(F)cc32)c1C [Sunitinib, sunitinib]",IC50,[1]; Homo sapiens,10700 nM
same,IC50,"[2]; Homo sapiens, 786-0, 786-O",23700 nM
same,IC50,"[3]; Homo sapiens, NCI-H82, NCI-H82 with NNMT gene inserted via viral vector (NNMT protein overexpressed)",2960 nM
same,IC50,"[4]; Homo sapiens, G-401, G-401",2910 nM
same,IC50,"[5]; Homo sapiens, WSUDLCL2, WSU-DLCL2",1340 nM
same,IC50,"[6]; Homo sapiens, MDA-MB-453, read-out: IC50 (50% inhibiting concentration), inhibitory effect on cell line, MDA-MB-453",2470 nM
same,IC50,"[7]; Homo sapiens, CFPAC-1, CFPAC-1",19600 nM
same,IC50,"[8]; Homo sapiens, NCI-H82, NCI-H82 transfected with empty virus vector without NNMT gene",1240 nM
same,IC50,"[9]; Homo sapiens, SF-126, SF126",11400 nM
same,IC50,"[10]; Homo sapiens, SW48, SW48",1150 nM
same,IC50,"[11]; Homo sapiens, NCI-H82, NCI-H82",1300 nM
"CCN(CC)CCNC(=O)c1c(C)[nH]c(/C=C2\C(=O)Nc3ccc(F)cc32)c1C [Sunitinib malate, sunitinib malate]",IC50,[1],12100 nM
same,IC50,[2]; 786-O,17800 nM
same,IC50,[3]; NCI-H82 with NNMT gene inserted via viral vector (NNMT protein overexpressed),3310 nM
same,IC50,[4]; G-401,2500 nM
same,IC50,[5]; WSU-DLCL2,1110 nM
same,IC50,"[6]; read-out: IC50 (50% inhibiting concentration), inhibitory effect on cell line, MDA-MB-453",2330 nM
same,IC50,[7]; CFPAC-1,16800 nM
same,IC50,[8]; NCI-H82 transfected with empty virus vector without NNMT gene,1210 nM
same,IC50,[9]; SF126,12400 nM
same,IC50,[10]; SW48,1470 nM
same,IC50,[11]; NCI-H82,1290 nM
